For orientation: IC50 means the concentration needed to halve the response being measured.

Each structure is given as a SMILES string. Positions of bridges follow the written chain, without caps; N, C: chain ends. Non-standard residues stand in square brackets, D forms with d. Residues, ends and D or L forms follow the SMILES beside them. Ala(indol-4-yl) = N[C@@H](Cc1cccc2[nH]ccc12)C(=O)O; Bip(2'-Me) = Cc1ccccc1-c1ccc(C[C@H](N)C(=O)O)cc1; Bip = N[C@@H](Cc1ccc(-c2ccccc2)cc1)C(=O)O; Phe(4-CN) = N#Cc1ccc(C[C@H](N)C(=O)O)cc1; d(cisHyp) = O=C(O)[C@H]1C[C@@H](O)CN1; NMeA = CN[C@@H](C)C(=O)O; Sar = CNCC(=O)O

T1 sequence (Q15116 25-288): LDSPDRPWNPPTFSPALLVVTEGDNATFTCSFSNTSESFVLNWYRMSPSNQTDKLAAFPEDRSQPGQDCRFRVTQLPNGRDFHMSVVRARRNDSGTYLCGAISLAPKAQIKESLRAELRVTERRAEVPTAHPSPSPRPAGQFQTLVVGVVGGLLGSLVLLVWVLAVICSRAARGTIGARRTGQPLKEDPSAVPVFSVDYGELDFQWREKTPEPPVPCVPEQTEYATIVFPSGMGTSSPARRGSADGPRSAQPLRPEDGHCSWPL

The assay has as its target T1, human PD-1 (Jurkat-PD-1 cells) / PE-labeled human PD-L1-Ig (Homo sapiens, UniProt Q15116).
T1 construct: expressed in transfected cells; host or cells: Jurkat cell line over-expressing human PD-1
Description: Jurkat-PD-1 Cell Binding High-Content Screening Assay (CBA); Jurkat hPD1-PDL1 assay. The note with it: Jurkat cell line over-expressing human PD-1; PE-labeled PD-L1-Ig 20 nM final; compound incubated 2 hours at 37° C.; read-out: Jurkat HPD1-PDL1 IC50. An outline of the steps: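 Compound was added to Jurkat-PD-1 cells in DMEM plus 10% fetal calf serum and incubated 2 hours at 37° C. Binding of phycoerythrin-conjugated PD-L1-Ig (20 nM final) to the cells was imaged.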
Take `COC[C@@H]1NC(=O)[C@H](C(C)C)NC(=O)[C@H](CC(C)C)NC(=O)[C@H](CC(N)=O)NC(=O)CN(C)C(=O)[C@H](C)N(C)C(=O)[C@H](C(C)C)NC(=O)[C@H](Cc2ccc(-c3ccccc3)cc2)NC(=O)[C@H](CC(C)C)NC(=O)[C@H](Cc2c[nH]c3ccccc23)NC(=O)[C@H](CC(=O)O)NC(=O)[C@H](Cc2ccc(O)cc2)NC(=O)[C@H](Cc2ccccc2)NC(=O)CSC[C@@H](C(=O)N[C@@H](C)C(N)=O)NC1=O` [Example 1123] ({CH2CO}-FYDWL[Bip]V[NMeA][Sar]NLVS(Me)CA-NH2; thioether N-14): the half-inhibitory concentration (IC50) was found to be 440 nM.
Consider `CC(C)C[C@@H]1NC(=O)[C@H](Cc2cccc3[nH]ccc23)NC(=O)[C@H](CC(=O)O)NC(=O)[C@H](Cc2ccc(O)cc2)NC(=O)[C@H](Cc2ccccc2)NC(=O)CSC[C@@H](C(=O)N[C@@H](C)C(N)=O)NC(=O)[C@H](CO)NC(=O)[C@H](C(C)C)NC(=O)[C@H](CC(C)C)NC(=O)[C@H](CC(N)=O)NC(=O)CN(C)C(=O)[C@H](C)N(C)C(=O)[C@H](C(C)C)NC(=O)[C@H](Cc2ccc(-c3ccccc3)cc2)NC1=O` [Example 1124] ({CH2CO}-FYD[Ala(indol-4-yl)]L[Bip]V[NMeA][Sar]NLVSCA-NH2; thioether N-14), for which the IC50 is 450 nM.
Regarding `Cc1ccccc1-c1ccc(C[C@@H]2NC(=O)[C@H](CC(C)C)NC(=O)[C@H](Cc3c[nH]c4ccccc34)NC(=O)[C@H](CC(=O)O)NC(=O)[C@H](Cc3ccc(O)cc3)NC(=O)[C@H](Cc3ccccc3)NC(=O)CSC[C@@H](C(=O)N[C@@H](C)C(N)=O)NC(=O)[C@H](CO)NC(=O)[C@H](C(C)C)NC(=O)[C@H](CC(C)C)NC(=O)[C@H](CC(N)=O)NC(=O)CN(C)C(=O)[C@H](C)N(C)C(=O)[C@H](C(C)C)NC2=O)cc1` [Example 1125] ({CH2CO}-FYDWL[Bip(2'-Me)]V[NMeA][Sar]NLVSCA-NH2; thioether N-14), the IC50 is 470 nM.
For the compound `CC(C)C[C@@H]1NC(=O)[C@H](Cc2c[nH]c3ccccc23)NC(=O)[C@H](CC(=O)O)NC(=O)[C@H](Cc2ccc(O)cc2)NC(=O)[C@H](Cc2ccccc2)NC(=O)CSC[C@@H](C(=O)N[C@@H](C)C(N)=O)NC(=O)[C@H](CO)NC(=O)[C@H](C(C)C)NC(=O)[C@H](CC(C)C)NC(=O)[C@H](CC(N)=O)NC(=O)[C@H]2C[C@@H](O)CN2C(=O)[C@H](C)N(C)C(=O)[C@H](C(C)C)NC(=O)[C@H](Cc2ccc(-c3ccccc3)cc2)NC1=O` [Example 1126] ({CH2CO}-FYDWL[Bip]V[NMeA][d(cisHyp)]NLVSCA-NH2; thioether N-14), the IC50 was 480 nM.
The value for `CC(C)C[C@@H]1NC(=O)[C@H](Cc2c[nH]c3ccccc23)NC(=O)[C@H](CC(=O)O)NC(=O)[C@H](Cc2ccc(O)cc2)NC(=O)[C@H](Cc2ccccc2)NC(=O)CSC[C@@H](C(=O)N[C@@H](C)C(N)=O)NC(=O)[C@H](Cc2cnc[nH]2)NC(=O)[C@H](C(C)C)NC(=O)[C@H](CC(C)C)NC(=O)[C@H](CC(N)=O)NC(=O)CN(C)C(=O)[C@H](C)N(C)C(=O)[C@H](C(C)C)NC(=O)[C@H](Cc2ccc(-c3ccccc3)cc2)NC1=O` [Example 1127] ({CH2CO}-FYDWL[Bip]V[NMeA][Sar]NLVHCA-NH2; thioether N-14) was 480 nM.
The value for `CC(C)C[C@@H]1NC(=O)[C@H](Cc2c[nH]c3ccccc23)NC(=O)[C@H](CC(=O)O)NC(=O)[C@H](Cc2ccc(O)cc2)NC(=O)[C@H](Cc2ccc(C#N)cc2)NC(=O)CSC[C@@H](C(=O)NCC(N)=O)NC(=O)[C@H](CO)NC(=O)[C@H](C(C)C)NC(=O)[C@H](CC(C)C)NC(=O)[C@H](CC(N)=O)NC(=O)CN(C)C(=O)[C@H](C)N(C)C(=O)[C@H](C(C)C)NC(=O)[C@H](Cc2ccc(-c3ccccc3)cc2)NC1=O` [Example 1128] ({CH2CO}-[Phe(4-CN)]YDWL[Bip]V[NMeA][Sar]NLVSCG-NH2; thioether N-14) was 490 nM.

Values taken from patent publication US20240360178A1, “MACROCYCLIC IMMUNOMODULATORS” (Bristol-Myers Squibb Company, priority 2021, published 2024).
